# Experimental data published in patent US10597388B2, “Pyridazinone herbicides” (FMC CORPORATION, priority 2014, dated 2020).
# Experiments:
# Test in all cases: Test D controlled growth environment herbicide test, pre- and postemergence
# Type in all cases: in vivo
# [1] = tested on: galium (catchweed bedstraw, Galium aparine)
# In short: (§1)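 Species sown in silt loam and sprayed preemergence, or grown in peat-based medium to 2–18 cm (1- to 4-leaf stage) and sprayed postemergence, with compounds in non-phytotoxic solvent plus surfactant. Visual injury scored versus controls after 14–21 d in a controlled environment, 0 (no effect) to 100 (complete control).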
# [2] = tested on: buckwheat, wild (wild buckwheat, Polygonum convolvulus)
# In short: as §1
# [3] = tested on: wheat, winter (winter wheat, Triticum aestivum)
# In short: as §1
# kochia (Kochia scoparia) = tested on: kochia (Kochia scoparia)
# In short: as §1
# [4] = tested on: ryegrass, Italian (Italian ryegrass, Lolium multiflorum)
# In short: as §1
# [5] = tested on: field poppy (Papaver rhoeas)
# In short: as §1
# [6] = tested on: Russian thistle (Salsola kali)
# In short: as §1
# [7] = tested on: bluegrass (annual bluegrass, Poa annua)
# In short: as §1
# [8] = tested on: chickweed (common chickweed, Stellaria media)
# In short: as §1
# [9] = tested on: canarygrass (Phalaris minor)
# In short: as §1
# [10] = tested on: blackgrass (Alopecurus myosuroides)
# In short: as §1
# [11] = tested on: pigweed (Amaranthus retroflexus)
# In short: as §1
# [12] = tested on: foxtail, green (green foxtail, Setaria viridis)
# In short: as §1
# [13] = Postemergence, 31 g ai/ha, scale 0 to 100 (0 no effect, 100 complete control)
# [14] = Postemergence, 125 g ai/ha, visual rating on scale 0 (no effect) to 100 (complete control), 14 to 21 d
# [15] = Postemergence, 250 g ai/ha, scale 0 to 100 (0 no effect, 100 complete control)
# [16] = Preemergence, 125 g ai/ha, scale 0 to 100 (0 no effect, 100 complete control)
# [17] = Preemergence, 250 g ai/ha, scale 0 to 100 (0 no effect, 100 complete control)
# [18] = postemergence, 62 g ai/ha, scale 0 to 100, 0 no effect, 100 complete control
# [19] = Preemergence, 62 g ai/ha, scale 0 to 100 (0 no effect, 100 complete control)
smiles,measurement,setting,value
CCC(=O)Oc1c(C)nn(C)c(=O)c1-c1c(C)sc2ccc(Cl)cc12 [Compound 109],Galium plant response rating,[1]; [13],100
same,"Plant response rating, Galium",[1]; [14],100
same,"Plant response rating, Galium",[1]; [15],100
same,"Plant response rating (scale of 0 to 100), Galium","[1]; Preemergence, 31 g ai/ha",40
same,"Plant response rating (scale of 0 to 100), Galium","[1]; Preemergence, 62 g ai/ha",75
same,"Plant response rating, Galium",[1]; [16],100
same,"Plant response rating, Galium",[1]; [17],100
same,"Plant response rating, Galium",[1]; [18],100
same,"Buckwheat, Wild plant response rating",[2]; [13],95
same,"Plant response rating, Buckwheat, Wild",[2]; [14],100
same,"Plant response rating, Buckwheat, Wild",[2]; [15],100
same,"Plant response rating (scale of 0 to 100), Buckwheat, Wild","[2]; Preemergence, 31 g ai/ha",0
same,"Plant response rating, Buckwheat, Wild",[2]; [19],20
same,"Plant response rating, Buckwheat, Wild",[2]; [16],30
same,"Plant response rating, Buckwheat, Wild",[2]; [17],75
same,"Plant response rating, Buckwheat, Wild",[2]; [18],95
same,"Wheat, Winter plant response rating",[3]; [13],10
same,"Plant response rating, Wheat, Winter",[3]; [14],25
same,"Plant response rating, Wheat, Winter",[3]; [15],35
same,"Plant response rating (scale of 0 to 100), Wheat, Winter","[3]; Preemergence, 31 g ai/ha",0
same,"Plant response rating (scale of 0 to 100), Wheat, Winter","[3]; Preemergence, 62 g ai/ha",0
same,"Plant response rating, Wheat, Winter",[3]; [16],5
same,"Plant response rating, Wheat, Winter",[3]; [17],20
same,"Plant response rating, Wheat, Winter",[3]; [18],15
same,Kochia plant response rating,kochia (Kochia scoparia); [13],95
same,"Plant response rating, Kochia",kochia (Kochia scoparia); [14],100
same,"Plant response rating, Kochia",kochia (Kochia scoparia); [15],100
same,"Plant response rating (scale of 0 to 100), Kochia","kochia (Kochia scoparia); Preemergence, 31 g ai/ha",20
same,"Plant response rating (scale of 0 to 100), Kochia","kochia (Kochia scoparia); Preemergence, 62 g ai/ha",70
same,"Plant response rating, Kochia",kochia (Kochia scoparia); [16],80
same,"Plant response rating, Kochia",kochia (Kochia scoparia); [17],100
same,"Plant response rating, Kochia",kochia (Kochia scoparia); [18],100
same,"Ryegrass, Italian plant response rating",[4]; [13],85
same,"Plant response rating, Ryegrass, Italian",[4]; [14],95
same,"Plant response rating, Ryegrass, Italian",[4]; [15],100
same,"Plant response rating (scale of 0 to 100), Ryegrass, Italian","[4]; Preemergence, 31 g ai/ha",80
same,"Plant response rating (scale of 0 to 100), Ryegrass, Italian","[4]; Preemergence, 62 g ai/ha",95
same,"Plant response rating, Ryegrass, Italian",[4]; [16],100
same,"Plant response rating, Ryegrass, Italian",[4]; [17],100
same,"Plant response rating, Ryegrass, Italian",[4]; [18],85
same,Field Poppy plant response rating,[5]; [13],45
same,"Plant response rating, Field Poppy",[5]; [14],75
same,"Plant response rating, Field Poppy",[5]; [15],85
same,"Plant response rating (scale of 0 to 100), Field Poppy","[5]; Preemergence, 31 g ai/ha",100
same,"Plant response rating (scale of 0 to 100), Field Poppy","[5]; Preemergence, 62 g ai/ha",100
same,"Plant response rating, Field Poppy",[5]; [16],100
same,"Plant response rating, Field Poppy",[5]; [17],100
same,"Plant response rating, Field Poppy",[5]; [18],50
same,Russian Thistle plant response rating,[6]; [13],60
same,"Plant response rating, Russian Thistle",[6]; [14],75
same,"Plant response rating, Russian Thistle",[6]; [15],90
same,"Plant response rating (scale of 0 to 100), Russian Thistle","[6]; Preemergence, 31 g ai/ha",0
same,"Plant response rating (scale of 0 to 100), Russian Thistle","[6]; Preemergence, 62 g ai/ha",20
same,"Plant response rating, Russian Thistle",[6]; [16],35
same,"Plant response rating, Russian Thistle",[6]; [17],50
same,"Plant response rating, Russian Thistle",[6]; [18],75
same,Bluegrass plant response rating,[7]; [13],5
same,"Plant response rating, Bluegrass",[7]; [14],25
same,"Plant response rating, Bluegrass",[7]; [15],45
same,"Plant response rating (scale of 0 to 100), Bluegrass","[7]; Preemergence, 31 g ai/ha",10
same,"Plant response rating, Bluegrass",[7]; [19],20
same,"Plant response rating, Bluegrass",[7]; [16],30
same,"Plant response rating, Bluegrass",[7]; [17],60
same,"Plant response rating, Bluegrass",[7]; [18],15
same,Chickweed plant response rating,[8]; [13],100
same,"Plant response rating, Chickweed",[8]; [14],100
same,"Plant response rating, Chickweed",[8]; [15],100
same,"Plant response rating (scale of 0 to 100), Chickweed","[8]; Preemergence, 31 g ai/ha",100
same,"Plant response rating (scale of 0 to 100), Chickweed","[8]; Preemergence, 62 g ai/ha",100
same,"Plant response rating, Chickweed",[8]; [16],100
same,"Plant response rating, Chickweed",[8]; [17],100
same,"Plant response rating, Chickweed",[8]; [18],100
same,Canarygrass plant response rating,[9]; [13],40
same,"Plant response rating, Canarygrass",[9]; [14],80
same,"Plant response rating, Canarygrass",[9]; [15],90
same,"Plant response rating (scale of 0 to 100), Canarygrass","[9]; Preemergence, 31 g ai/ha",35
same,"Plant response rating (scale of 0 to 100), Canarygrass","[9]; Preemergence, 62 g ai/ha",75
same,"Plant response rating, Canarygrass",[9]; [16],90
same,"Plant response rating, Canarygrass",[9]; [17],98
same,"Plant response rating, Canarygrass",[9]; [18],55
same,Blackgrass plant response rating,[10]; [13],20
same,"Plant response rating, Blackgrass",[10]; [14],65
same,"Plant response rating, Blackgrass",[10]; [15],75
same,"Plant response rating (scale of 0 to 100), Blackgrass","[10]; Preemergence, 31 g ai/ha",25
same,"Plant response rating, Blackgrass",[10]; [19],25
same,"Plant response rating, Blackgrass",[10]; [16],75
same,"Plant response rating, Blackgrass",[10]; [17],80
same,"Plant response rating, Blackgrass",[10]; [18],30
same,Pigweed plant response rating,[11]; [13],85
same,"Plant response rating, Pigweed",[11]; [14],100
same,"Plant response rating, Pigweed",[11]; [15],100
same,"Plant response rating (scale of 0 to 100), Pigweed","[11]; Preemergence, 31 g ai/ha",100
same,"Plant response rating (scale of 0 to 100), Pigweed","[11]; Preemergence, 62 g ai/ha",100
same,"Plant response rating, Pigweed",[11]; [16],100
same,"Plant response rating, Pigweed",[11]; [17],100
same,"Plant response rating, Pigweed",[11]; [18],85
same,"Foxtail, Green plant response rating",[12]; [13],55
same,"Plant response rating, Foxtail, Green",[12]; [14],75
same,"Plant response rating, Foxtail, Green",[12]; [15],85
same,"Plant response rating (scale of 0 to 100), Foxtail, Green","[12]; Preemergence, 31 g ai/ha",0
same,"Plant response rating (scale of 0 to 100), Foxtail, Green","[12]; Preemergence, 62 g ai/ha",65
same,"Plant response rating, Foxtail, Green",[12]; [16],75
same,"Plant response rating, Foxtail, Green",[12]; [17],95
same,"Plant response rating, Foxtail, Green",[12]; [18],65
